The target in the assay is P-glycoprotein (P-gp) (Homo sapiens, UniProt P08183). Nature of the assay: calcein-AM efflux assay in L-MDR1 vs LLC-PK1 cells. Type of assay: cell-based.
P-glycoprotein (P-gp), sequence (P08183 whole entry): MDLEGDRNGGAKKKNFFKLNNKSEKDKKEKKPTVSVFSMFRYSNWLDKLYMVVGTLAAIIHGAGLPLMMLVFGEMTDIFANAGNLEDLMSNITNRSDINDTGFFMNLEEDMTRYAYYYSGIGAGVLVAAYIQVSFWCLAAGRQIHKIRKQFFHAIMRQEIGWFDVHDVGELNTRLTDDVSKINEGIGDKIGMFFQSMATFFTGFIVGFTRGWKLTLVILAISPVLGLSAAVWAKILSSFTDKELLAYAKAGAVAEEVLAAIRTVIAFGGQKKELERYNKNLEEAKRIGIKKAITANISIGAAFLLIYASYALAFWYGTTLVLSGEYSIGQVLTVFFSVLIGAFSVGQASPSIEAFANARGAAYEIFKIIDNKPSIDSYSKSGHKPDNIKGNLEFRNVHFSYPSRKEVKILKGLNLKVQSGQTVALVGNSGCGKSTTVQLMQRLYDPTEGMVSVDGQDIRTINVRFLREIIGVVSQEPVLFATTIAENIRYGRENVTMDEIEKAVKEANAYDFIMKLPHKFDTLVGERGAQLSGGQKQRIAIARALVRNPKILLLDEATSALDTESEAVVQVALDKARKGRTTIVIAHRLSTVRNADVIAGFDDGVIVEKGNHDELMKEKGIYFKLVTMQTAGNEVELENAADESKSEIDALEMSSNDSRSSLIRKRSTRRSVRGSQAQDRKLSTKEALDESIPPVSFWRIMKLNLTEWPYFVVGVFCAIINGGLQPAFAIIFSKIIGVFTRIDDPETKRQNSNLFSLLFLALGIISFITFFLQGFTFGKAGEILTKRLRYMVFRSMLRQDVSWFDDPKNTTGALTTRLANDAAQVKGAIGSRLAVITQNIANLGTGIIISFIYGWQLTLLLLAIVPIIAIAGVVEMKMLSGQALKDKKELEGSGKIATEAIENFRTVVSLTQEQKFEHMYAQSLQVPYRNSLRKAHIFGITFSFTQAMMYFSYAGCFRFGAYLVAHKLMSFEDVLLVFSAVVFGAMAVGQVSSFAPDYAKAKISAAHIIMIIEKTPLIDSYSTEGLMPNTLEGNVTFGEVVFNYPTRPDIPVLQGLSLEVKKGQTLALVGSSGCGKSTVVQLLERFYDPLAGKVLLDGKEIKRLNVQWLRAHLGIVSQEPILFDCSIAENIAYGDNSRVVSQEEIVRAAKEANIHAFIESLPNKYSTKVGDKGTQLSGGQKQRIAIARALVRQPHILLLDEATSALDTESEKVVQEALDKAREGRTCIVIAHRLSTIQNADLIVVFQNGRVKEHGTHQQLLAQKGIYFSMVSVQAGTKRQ

As for `CC(C)C[C@H]1C(=O)N2CCC[C@H]2[C@]2(O)O[C@](NC(=O)[C@@H]3C=C4c5cccc6[nH]c(Br)c(c56)C[C@H]4N(C)C3)(C(C)C)C(=O)N12` [bromocriptine], the Ki was 6.52 µM.

In general, Ki refers to the dissociation constant of the complex between target and ligand, obtained from inhibition or displacement.

(Values after article PMC5926957 (Japanese Journal of Cancer Research : Gann, 2002).)
